Reference: patent US20230372221A1, “USE OF THIOPYRIDINONE COMPOUNDS FOR PREVENTING THE FORMATION OF CUTANEOUS BLACKHEADS” (L'OREAL, priority 2020, published 2023)

System: oxidation of the L-DOPA under the action of the bacterial extract (intracellular extract of Cutibacterium acnes CIP 53.117)
Assay: In vitro evaluation of the ability to inhibit the development of the colour (absorbance at 475 nm of L-DOPA + Cutibacterium acnes extract)
Format: biochemical
Conditions: for inhibiting the development of the colour (result in words): compared with Reference (absence of treatment); for optical density at 475 nm: 32° C.; for % inhib (percentage of inhibition of the formation of the coloured product): from initial rate of oxidation between 10 and 40 minutes vs reference composition
Source text: This method is based on the measurement of absorbance, over time, carried out directly on a composition formed of a mixture of intracellular extract of bacteria of Cutibacterium acnes type, of 3,4-dihydroxy-L-phenylalanine (L-DOPA) and of a test compound. The measurements are compared with those carried out for a mixture of an intracellular extract of bacteria of Cutibacterium acnes type and of 3,4-dihydroxy-L-phenylalanine (L-DOPA), in the absence of test compound (reference). The method is adapted from a method for the enzymatic assay of the tyrosinase activity (Behbahani et al., Microchemical Journal (1993), 47, 251), which is based on the absorbance properties at 475 nm of a coloured intermediate of the pathway for the biosynthesis of melanin starting from L-DOPA, namely dopachrome, a product of the oxidation of L-DOPA. An intracellular extract of bacteria of Cutibacterium acnes CIP 53.117 type stored at 4° C. in the lyophilized form is suspended in 1×PBS (supplied by Gibco BRL Life Technologies) at a concentration of 6 mg/ml. A solution of L-DOPA at a concentration of 0.5 mg/ml is prepared by bringing together L-DOPA (supplied by Sigma-Aldrich) and milliQ water, so as to have an L-DOPA concentration of 1 mg/ml, then diluting with 1×PBS (Dulbecco's Phosphate Buffered Saline, supplied by Gibco BRL Life Technologies). The mixture of 50 μl of these two solutions and of 100 μl of 1×PBS (Dulbecco's Phosphate Buffered Saline, supplied by Gibco BRL Life Technologies) results in a composition with a total volume of 200 μl containing L-DOPA (at a concentration of 125 μg/ml) and Cutibacterium acnes extract (at a concentration of 1.5 mg/ml). The test compositions and the reference composition are introduced separately into wells of a 96-well microplate suitable for reading in visible spectrophotometry, and placed at a temperature of 32° C. The formation of a coloured product is monitored over time by spectrophotometry. To do this, the absorbance, or optical density (O.D.), is measured at 475 nm from the time 0 to the time 2 hours by means of a Spectra Max M5e reader and the Spectra Max software (the time 0 corresponds to the introduction of the composition into the wells). The ability to inhibit the development of the colour of a given compound was assessed by comparing the absorbance measurements obtained for the test compositions with those obtained for the reference composition. More specifically, the inhibitory effect of the test compound was evaluated by comparing the initial rate of oxidation of the L-DOPA under the action of the bacterial extract at 475 nm for the test composition with that of the reference composition in order to obtain a corresponding percentage of inhibition. In practice, the initial rate (Vi) of the oxidation reaction is calculated from the linear part of the curve of the graph of the absorbance values. As this part lies between 10 and 40 minutes (see the graph in FIG. 1), the initial rate of the oxidation reaction is determined using the following relationship: [formula] The percentage of inhibition (% inhib) of a given compound with regard to the formation of the coloured product is subsequently obtained using the values of the initial rate of the oxidation reaction for the reference composition (Viref) and for the test composition ([…]) according to the following relationship: [formula] Within the meaning of the invention, a compound is regarded as having an inhibitory effect if the % inhib value is at least 15%.

[1] = test compound 100 μM, duration 0 minutes
[2] = test compound 100 μM, duration 10 minutes
[3] = test compound 100 μM, duration 20 minutes
[4] = test compound 100 μM, duration 30 minutes
[5] = test compound 100 μM, duration 40 minutes
[6] = test compound 100 μM, duration 60 minutes
[7] = test compound 100 μM, duration 80 minutes
[8] = test compound 100 μM, duration 100 minutes
[9] = test compound 100 μM, duration 120 minutes

CCOC(=O)CNC(=O)c1ccc[nH]c1=S [Compound 5, Ethyl N-[(2-thioxo-1,2-dihydropyridin-3-yl)carbonyl]glycinate]
inhibiting the development of the colour (result in words): very effective
optical density at 475 nm (test compound 12.5 μM, duration 0 minutes): 0.0531
optical density at 475 nm (test compound 12.5 μM, duration 10 minutes): 0.0535
optical density at 475 nm (test compound 12.5 μM, duration 20 minutes): 0.0550
optical density at 475 nm (test compound 12.5 μM, duration 30 minutes): 0.0559
optical density at 475 nm (test compound 12.5 μM, duration 40 minutes): 0.0572
optical density at 475 nm (test compound 12.5 μM, duration 60 minutes): 0.0601
optical density at 475 nm (test compound 12.5 μM, duration 80 minutes): 0.0636
optical density at 475 nm (test compound 12.5 μM, duration 100 minutes): 0.0659
optical density at 475 nm (test compound 12.5 μM, duration 120 minutes): 0.0674
% inhib (percentage of inhibition of the formation of the coloured product) (test compound 12.5 μM): 57%
optical density at 475 nm (test compound 25 μM, duration 0 minutes): 0.0559
optical density at 475 nm (test compound 25 μM, duration 10 minutes): 0.0567
optical density at 475 nm (test compound 25 μM, duration 20 minutes): 0.0572
optical density at 475 nm (test compound 25 μM, duration 30 minutes): 0.0575
optical density at 475 nm (test compound 25 μM, duration 40 minutes): 0.0578
optical density at 475 nm (test compound 25 μM, duration 60 minutes): 0.0588
optical density at 475 nm (test compound 25 μM, duration 80 minutes): 0.0602
optical density at 475 nm (test compound 25 μM, duration 100 minutes): 0.0627
optical density at 475 nm (test compound 25 μM, duration 120 minutes): 0.0651
% inhib (percentage of inhibition of the formation of the coloured product) (test compound 25 μM): 87%
optical density at 475 nm (test compound 50 μM, duration 0 minutes): 0.0539
optical density at 475 nm (test compound 50 μM, duration 10 minutes): 0.0554
optical density at 475 nm (test compound 50 μM, duration 20 minutes): 0.0557
optical density at 475 nm (test compound 50 μM, duration 30 minutes): 0.0560
optical density at 475 nm (test compound 50 μM, duration 40 minutes): 0.0565
optical density at 475 nm (test compound 50 μM, duration 60 minutes): 0.0573
optical density at 475 nm (test compound 50 μM, duration 80 minutes): 0.0579
optical density at 475 nm (test compound 50 μM, duration 100 minutes): 0.0585
optical density at 475 nm (test compound 50 μM, duration 120 minutes): 0.0593
% inhib (percentage of inhibition of the formation of the coloured product) (test compound 50 μM): 87%
optical density at 475 nm [1]: 0.0532
optical density at 475 nm [2]: 0.0534
optical density at 475 nm [3]: 0.0548
optical density at 475 nm [4]: 0.0550
optical density at 475 nm [5]: 0.0550
optical density at 475 nm [6]: 0.0555
optical density at 475 nm [7]: 0.0557
optical density at 475 nm [8]: 0.0561
optical density at 475 nm [9]: 0.0563
% inhib (percentage of inhibition of the formation of the coloured product) (test compound 100 μM): 82%

O=c1cc(CO)occ1O [Kojic acid, kojic acid, reference compound]
inhibiting the development of the colour (result in words): does not make it possible to inhibit the development of the colour
inhibiting the development of the colour (result in words) (listed as kojic acid): without effect
optical density at 475 nm [1]: 0.0599
optical density at 475 nm [2]: 0.0614
optical density at 475 nm [3]: 0.0646
optical density at 475 nm [4]: 0.0698
optical density at 475 nm [5]: 0.0741
optical density at 475 nm [6]: 0.0804
optical density at 475 nm [7]: 0.0837
optical density at 475 nm [8]: 0.0845
optical density at 475 nm [9]: 0.0843
% inhib (percentage of inhibition of the formation of the coloured product) (test compound 100 μM): −1%

CCCCc1ccc(O)cc1O [Lucinol, 4-butylresorcinol, reference compound]
inhibiting the development of the colour (result in words): does not make it possible to inhibit the development of the colour
inhibiting the development of the colour (result in words) (listed as lucinol): without effect
optical density at 475 nm [1]: 0.0552
optical density at 475 nm [2]: 0.0563
optical density at 475 nm [3]: 0.0591
optical density at 475 nm [4]: 0.0629
optical density at 475 nm [5]: 0.0671
optical density at 475 nm [6]: 0.0730
optical density at 475 nm [7]: 0.0758
optical density at 475 nm [8]: 0.0768
optical density at 475 nm [9]: 0.0765
% inhib (percentage of inhibition of the formation of the coloured product) (test compound 100 μM): 0%
